Results published in PubChem BioAssay AID2060902 (Molecular Pharmacology Branch, DTP, NCI, 2025).
“And” between values parts separate entries of the source, which are not always exact repeats. Identical values can stand only once.

System: 485368-065-R3-J5-PDC spheroids with HUVEC/MSC, viability
Test: Anticancer human tumor 485368-065-R3-J5-PDC patient-derived pancreatic carcinoma cell line growth inhibition [RAS]
Conditions: for viability, T/C: stronger effect = lower value
Summary of the method: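 Multi-cell-type spheroids: tumor cells plus HUVEC endothelial cells and mesenchymal stem cells. RAS-pathway inhibitors were combined with targeted agents, each dosed in half-log steps down from clinical Cmax, or from 10 microM when Cmax was unknown.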
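Further: spheroids exposed to agents for seven days before readout.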

## CCN1CCN(Cc2ccc(Nc3ncc(F)c(-c4cc(F)c5nc(C)n(C(C)C)c5c4)n3)nc2)CC1 + C#Cc1c(F)ccc2cc(O)cc(-c3ncc4c(N5CC6CCC(C5)N6)nc(OCC56CCCN5CC(F)C6)nc4c3F)c12
Curve of first compound, second compound 0.0316 µM
  IC50: 457 nM
Curve of first compound, second compound 0.1 µM
  IC50: 313 nM
Curve of first compound, second compound 0.316 µM
  IC50: 435 nM
Curve of first compound, second compound 1 µM
  IC50: 179 nM
Curve of first compound, second compound 3.16 µM
  IC50: 47.1 nM
Curve of first compound, second compound 10 µM
  IC50: < 3.16 nM
Second compound 0.0316 µM, first compound 0.00316 µM
  viability, T/C: 101%
Second compound 0.0316 µM, first compound 0.01 µM
  viability, T/C: 87%
Second compound 0.0316 µM, first compound 0.0316 µM
  viability, T/C: 82.8%
Second compound 0.0316 µM, first compound 0.1 µM
  viability, T/C: 72.5%
Second compound 0.0316 µM, first compound 0.316 µM
  viability, T/C: 50.9%
Second compound 0.0316 µM, first compound 1 µM
  viability, T/C: 41.4%
Second compound 0.1 µM, first compound 0.00316 µM
  viability, T/C: 98.2%
Second compound 0.1 µM, first compound 0.01 µM
  viability, T/C: 96.7%
Second compound 0.1 µM, first compound 0.0316 µM
  viability, T/C: 76.1%
Second compound 0.1 µM, first compound 0.1 µM
  viability, T/C: 65.9%
Second compound 0.1 µM, first compound 0.316 µM
  viability, T/C: 50.1%
Second compound 0.1 µM, first compound 1 µM
  viability, T/C: 39.8%
Second compound 0.316 µM, first compound 0.00316 µM
  viability, T/C: 94.4%
Second compound 0.316 µM, first compound 0.01 µM
  viability, T/C: 85.9%
Second compound 0.316 µM, first compound 0.0316 µM
  viability, T/C: 76.2%
Second compound 0.316 µM, first compound 0.1 µM
  viability, T/C: 72.1%
Second compound 0.316 µM, first compound 0.316 µM
  viability, T/C: 50.4%
Second compound 0.316 µM, first compound 1 µM
  viability, T/C: 40.6%
Second compound 1 µM, first compound 0.00316 µM
  viability, T/C: 78.5%
Second compound 1 µM, first compound 0.01 µM
  viability, T/C: 83.8%
Second compound 1 µM, first compound 0.0316 µM
  viability, T/C: 75.1%
Second compound 1 µM, first compound 0.1 µM
  viability, T/C: 59.4%
Second compound 1 µM, first compound 0.316 µM
  viability, T/C: 40.1%
Second compound 1 µM, first compound 1 µM
  viability, T/C: 40%
Second compound 3.16 µM, first compound 0.00316 µM
  viability, T/C: 69.4%
Second compound 3.16 µM, first compound 0.01 µM
  viability, T/C: 63.9%
Second compound 3.16 µM, first compound 0.0316 µM
  viability, T/C: 49.7%
Second compound 3.16 µM, first compound 0.1 µM
  viability, T/C: 47.5%
Second compound 3.16 µM, first compound 0.316 µM
  viability, T/C: 36.5%
Second compound 3.16 µM, first compound 1 µM
  viability, T/C: 33.8%
Second compound 10 µM, first compound 0.00316 µM
  viability, T/C: 48.8%
Second compound 10 µM, first compound 0.01 µM
  viability, T/C: 37.2%
Second compound 10 µM, first compound 0.0316 µM
  viability, T/C: 31.4%
Second compound 10 µM, first compound 0.1 µM
  viability, T/C: 30.3%
Second compound 10 µM, first compound 0.316 µM
  viability, T/C: 29.9%
Second compound 10 µM, first compound 1 µM
  viability, T/C: 28.3%

## CC1(O)CCCC1n1c(=O)c(C(F)F)cc2cnc(NC3CCN(S(C)(=O)=O)CC3)nc21 (stereo not given)
Compound 0.0316 µM
  viability, T/C: 104% [middle of 4 runs]
Compound 0.1 µM
  viability, T/C: 74% [middle of 4 runs]
Compound 0.316 µM
  viability, T/C: 50.7% [middle of 4 runs]
Compound 1 µM
  viability, T/C: 42.3% (2×) and 46.1% and 41.8%
Compound 3.16 µM
  viability, T/C: 47.1% [middle of 4 runs]
Compound 10 µM
  viability, T/C: 19.6% [middle of 4 runs]
Curve of compound
  IC50: 469 nM [middle of 4 runs]

## O=C(c1ccc(F)c(F)c1Nc1ccc(I)cc1F)N1CC(O)([C@@H]2CCCCN2)C1
Compound 0.00316 µM
  viability, T/C: 98.9% [middle of 4 runs]
Compound 0.01 µM
  viability, T/C: 69.2% [middle of 4 runs]
Compound 0.0316 µM
  viability, T/C: 54.5% [middle of 4 runs]
Compound 0.1 µM
  viability, T/C: 36.6% [middle of 4 runs]
Compound 0.316 µM
  viability, T/C: 26.7% [middle of 4 runs]
Compound 1 µM
  viability, T/C: 11.3% [middle of 4 runs]
Curve of compound
  IC50: 42.7 nM [middle of 4 runs]

## C=CC(=O)Nc1cc(Nc2nccc(-c3cn(C)c4ccccc34)n2)c(OC)cc1N(C)CCN(C)C + CCn1c(-c2cccnc2C(C)OC)c2c3cc(ccc31)N1CCOC(CC(NC(=O)C(C(C)C)N(C)C(=O)C3(F)CCN(C(=O)C#CC(C)(C)N(C)C)CC3)C(=O)N3CCCC(N3)C(=O)OCC(C)(C)C2)C1
Curve of first compound, second compound 0.000949 µM
  IC50: > 1000 nM
Curve of first compound, second compound 0.003 µM
  IC50: > 1000 nM
Curve of first compound, second compound 0.00949 µM
  IC50: > 1000 nM
Curve of first compound, second compound 0.03 µM
  IC50: > 1000 nM
Curve of first compound, second compound 0.0949 µM
  IC50: > 1000 nM
Curve of first compound, second compound 0.3 µM
  IC50: > 1000 nM
Second compound 0.000949 µM, first compound 0.00316 µM
  viability, T/C: 104%
Second compound 0.000949 µM, first compound 0.01 µM
  viability, T/C: 94.9%
Second compound 0.000949 µM, first compound 0.0316 µM
  viability, T/C: 99%
Second compound 0.000949 µM, first compound 0.1 µM
  viability, T/C: 91%
Second compound 0.000949 µM, first compound 0.316 µM
  viability, T/C: 101%
Second compound 0.000949 µM, first compound 1 µM
  viability, T/C: 105%
Second compound 0.003 µM, first compound 0.00316 µM
  viability, T/C: 87.5%
Second compound 0.003 µM, first compound 0.01 µM
  viability, T/C: 95.3%
Second compound 0.003 µM, first compound 0.0316 µM
  viability, T/C: 102%
Second compound 0.003 µM, first compound 0.1 µM
  viability, T/C: 93.7%
Second compound 0.003 µM, first compound 0.316 µM
  viability, T/C: 113%
Second compound 0.003 µM, first compound 1 µM
  viability, T/C: 115%
Second compound 0.00949 µM, first compound 0.00316 µM
  viability, T/C: 88.7%
Second compound 0.00949 µM, first compound 0.01 µM
  viability, T/C: 95.7%
Second compound 0.00949 µM, first compound 0.0316 µM
  viability, T/C: 98.4%
Second compound 0.00949 µM, first compound 0.1 µM
  viability, T/C: 102%
Second compound 0.00949 µM, first compound 0.316 µM
  viability, T/C: 117%
Second compound 0.00949 µM, first compound 1 µM
  viability, T/C: 103%
Second compound 0.03 µM, first compound 0.00316 µM
  viability, T/C: 89.4%
Second compound 0.03 µM, first compound 0.01 µM
  viability, T/C: 114%
Second compound 0.03 µM, first compound 0.0316 µM
  viability, T/C: 92.5%
Second compound 0.03 µM, first compound 0.1 µM
  viability, T/C: 98%
Second compound 0.03 µM, first compound 0.316 µM
  viability, T/C: 105%
Second compound 0.03 µM, first compound 1 µM
  viability, T/C: 110%
Second compound 0.0949 µM, first compound 0.00316 µM
  viability, T/C: 104%
Second compound 0.0949 µM, first compound 0.01 µM
  viability, T/C: 105%
Second compound 0.0949 µM, first compound 0.0316 µM
  viability, T/C: 105%
Second compound 0.0949 µM, first compound 0.1 µM
  viability, T/C: 107%
Second compound 0.0949 µM, first compound 0.316 µM
  viability, T/C: 110%
Second compound 0.0949 µM, first compound 1 µM
  viability, T/C: 97.6%
Second compound 0.3 µM, first compound 0.00316 µM
  viability, T/C: 101%
Second compound 0.3 µM, first compound 0.01 µM
  viability, T/C: 99.7%
Second compound 0.3 µM, first compound 0.0316 µM
  viability, T/C: 106%
Second compound 0.3 µM, first compound 0.1 µM
  viability, T/C: 112%
Second compound 0.3 µM, first compound 0.316 µM
  viability, T/C: 106%
Second compound 0.3 µM, first compound 1 µM
  viability, T/C: 101%

## C=CC(=O)Nc1cc(Nc2nccc(-c3cn(C)c4ccccc34)n2)c(OC)cc1N(C)CCN(C)C
Compound 0.00316 µM
  viability, T/C: 108% [middle of 4 runs]
Compound 0.01 µM
  viability, T/C: 94.1% [middle of 4 runs]
Compound 0.0316 µM
  viability, T/C: 109% [middle of 4 runs]
Compound 0.1 µM
  viability, T/C: 106% [middle of 4 runs]
Compound 0.316 µM
  viability, T/C: 104% [middle of 4 runs]
Compound 1 µM
  viability, T/C: 97.5% [middle of 4 runs]
Curve of compound
  IC50: > 1000 nM
